Ten molecules from patent publication US7253154B2, “Substituted thiazolopyrimidines as xanthine oxidase inhibitors” (Nippon Chemiphar Co., Ltd., priority 2001, dated 2007) can be followed below.

In assay [1] the target is T1, Cow milk Xanthine Oxidase (Bos taurus, UniProt P80457).
T1 construct: Cow milk Xanthine Oxidase (Roche); purchased Roche; host or cells: cow milk
Briefly: Xanthine oxidase inhibiting action, in vitro test (oxidation of xanthine, absorbance OD 290). Type of assay: biochemical. The conditions noted are these: Cow milk xanthine oxidase (Roche), xanthine substrate, 50 mM phosphate buffer pH 7.5, 37° C., 15 min. The protocol: Pharmacological Experiment 1 (In Vitro Test)
1. Preparation of Test Sample
250 gL of each of the solutions of the test compound having different concentrations was added to 1 mL of a solution of Xanthine (SIGMA, 300 µM) in the 50 mM phosphor buffer (pH 7.5). The mixture was then pre-incubated at 37° C. for 10 min. Subsequently, to the pre-incubated mixture was added […] of Cow milk Xanthine Oxidase (Roche) diluted with the 50 mM phosphate buffer (pH 7.5) to give a solution of 30 mU concentration. The mixture was then kept at 37° C. for 15 min for performing a reaction. The reaction was terminated by addition of 1N hydrochloric acid. Subsequently, the absorbance ([…]) was measured by means of a spectrophotometer (HITACHI U-2000), to obtain the inhibition ratio.
The inhibition ratio was calculated according to the following formula: Inhibition ratio(%)=[1−(B−C)/(A−C)]×100
B: absorbance measured in the case of using test compound

The next assay addresses T2, xanthine oxidase (Mus musculus, UniProt Q00519).
T2 construct: ICR mouse (Japan Charles River Co., Ltd., 6 W) was employed as test animal; from tissue; host or cells: living ICR mouse (whole animal; plasma uric acid measured)
The assay can be described thus: In vivo test: uric acid value in plasma of mouse after oral administration. The note with it: ICR mouse, 3 mg/10 mL/kg single oral administration, blood collected after one hour. From the text:
The xanthine oxidase inhibiting action was further confirmed in vivo tests by measuring the uric acid concentration in a plasma obtained from mouse into which the compound of the invention had been orally administered. See Example 1-B, Table 21.
Pharmacological Experiment 2 (In Vivo Test)
1. Test Animals, and Grouping
ICR mouse (Japan Charles River Co., Ltd., 6 W) was employed as test animal. One group comprised mice, and a vehicle control group was set for each experiment.
2. Preparation and Administration of the Test Compound
The test compound was suspended in aqueous […] methylcellulose solution to for administration.
Dosage is 3 mg/10 mL/kg for each of the control groups and all test groups. The administration was made by single oral administration.
3. Procedure of Experiment
The test compound was orally administered once, and the whole blood was collected from main artery in the presence of heparin after one hour. From the collected whole blood was separated plasma in the conventional manner, and the plasma was subjected to measurement of uric acid value by the enzyme method by means of an automatic analytical apparatus (HITACHI 7060E).
The inhibition ratio was calculated according to the following formula: Inhibition ratio(%)=[…]
A: average uric acid value in plasma of the group into which the test compound was administered.
B: average uric acid value in plasma of the vehicle control group

T1 sequence (P80457 whole entry): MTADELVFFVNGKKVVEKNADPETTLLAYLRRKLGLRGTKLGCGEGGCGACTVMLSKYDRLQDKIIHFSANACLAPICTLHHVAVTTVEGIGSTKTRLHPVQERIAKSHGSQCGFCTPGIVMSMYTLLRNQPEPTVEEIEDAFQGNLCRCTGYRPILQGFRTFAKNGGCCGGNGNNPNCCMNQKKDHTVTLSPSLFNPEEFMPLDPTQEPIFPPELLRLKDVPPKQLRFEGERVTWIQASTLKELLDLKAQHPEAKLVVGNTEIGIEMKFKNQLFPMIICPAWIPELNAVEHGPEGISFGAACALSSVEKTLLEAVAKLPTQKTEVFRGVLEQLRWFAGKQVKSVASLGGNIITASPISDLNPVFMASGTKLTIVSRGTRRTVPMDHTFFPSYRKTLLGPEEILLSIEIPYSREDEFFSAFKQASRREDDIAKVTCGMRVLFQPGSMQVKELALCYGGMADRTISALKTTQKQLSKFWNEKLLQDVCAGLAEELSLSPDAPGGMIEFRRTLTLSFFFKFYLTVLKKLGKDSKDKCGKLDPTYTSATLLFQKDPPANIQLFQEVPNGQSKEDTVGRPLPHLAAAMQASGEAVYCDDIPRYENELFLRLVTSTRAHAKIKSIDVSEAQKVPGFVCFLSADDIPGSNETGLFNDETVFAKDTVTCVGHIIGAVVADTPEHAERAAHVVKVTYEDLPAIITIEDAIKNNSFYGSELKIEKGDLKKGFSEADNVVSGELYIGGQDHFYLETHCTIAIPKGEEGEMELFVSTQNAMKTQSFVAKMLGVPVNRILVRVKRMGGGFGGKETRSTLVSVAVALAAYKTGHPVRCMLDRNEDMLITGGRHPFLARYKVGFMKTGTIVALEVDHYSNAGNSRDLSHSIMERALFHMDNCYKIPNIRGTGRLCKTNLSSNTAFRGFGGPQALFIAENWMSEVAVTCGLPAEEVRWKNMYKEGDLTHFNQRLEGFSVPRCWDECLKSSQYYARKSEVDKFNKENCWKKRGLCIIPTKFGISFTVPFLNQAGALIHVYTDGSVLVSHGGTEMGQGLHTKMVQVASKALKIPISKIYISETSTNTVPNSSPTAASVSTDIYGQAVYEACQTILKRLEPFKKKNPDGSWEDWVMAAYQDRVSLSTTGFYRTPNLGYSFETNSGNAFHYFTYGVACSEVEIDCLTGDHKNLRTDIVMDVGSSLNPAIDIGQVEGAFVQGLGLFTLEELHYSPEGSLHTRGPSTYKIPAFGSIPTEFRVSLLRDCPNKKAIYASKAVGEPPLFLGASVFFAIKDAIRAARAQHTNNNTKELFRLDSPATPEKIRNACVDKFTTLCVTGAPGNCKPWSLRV
T2 sequence (Q00519 whole entry): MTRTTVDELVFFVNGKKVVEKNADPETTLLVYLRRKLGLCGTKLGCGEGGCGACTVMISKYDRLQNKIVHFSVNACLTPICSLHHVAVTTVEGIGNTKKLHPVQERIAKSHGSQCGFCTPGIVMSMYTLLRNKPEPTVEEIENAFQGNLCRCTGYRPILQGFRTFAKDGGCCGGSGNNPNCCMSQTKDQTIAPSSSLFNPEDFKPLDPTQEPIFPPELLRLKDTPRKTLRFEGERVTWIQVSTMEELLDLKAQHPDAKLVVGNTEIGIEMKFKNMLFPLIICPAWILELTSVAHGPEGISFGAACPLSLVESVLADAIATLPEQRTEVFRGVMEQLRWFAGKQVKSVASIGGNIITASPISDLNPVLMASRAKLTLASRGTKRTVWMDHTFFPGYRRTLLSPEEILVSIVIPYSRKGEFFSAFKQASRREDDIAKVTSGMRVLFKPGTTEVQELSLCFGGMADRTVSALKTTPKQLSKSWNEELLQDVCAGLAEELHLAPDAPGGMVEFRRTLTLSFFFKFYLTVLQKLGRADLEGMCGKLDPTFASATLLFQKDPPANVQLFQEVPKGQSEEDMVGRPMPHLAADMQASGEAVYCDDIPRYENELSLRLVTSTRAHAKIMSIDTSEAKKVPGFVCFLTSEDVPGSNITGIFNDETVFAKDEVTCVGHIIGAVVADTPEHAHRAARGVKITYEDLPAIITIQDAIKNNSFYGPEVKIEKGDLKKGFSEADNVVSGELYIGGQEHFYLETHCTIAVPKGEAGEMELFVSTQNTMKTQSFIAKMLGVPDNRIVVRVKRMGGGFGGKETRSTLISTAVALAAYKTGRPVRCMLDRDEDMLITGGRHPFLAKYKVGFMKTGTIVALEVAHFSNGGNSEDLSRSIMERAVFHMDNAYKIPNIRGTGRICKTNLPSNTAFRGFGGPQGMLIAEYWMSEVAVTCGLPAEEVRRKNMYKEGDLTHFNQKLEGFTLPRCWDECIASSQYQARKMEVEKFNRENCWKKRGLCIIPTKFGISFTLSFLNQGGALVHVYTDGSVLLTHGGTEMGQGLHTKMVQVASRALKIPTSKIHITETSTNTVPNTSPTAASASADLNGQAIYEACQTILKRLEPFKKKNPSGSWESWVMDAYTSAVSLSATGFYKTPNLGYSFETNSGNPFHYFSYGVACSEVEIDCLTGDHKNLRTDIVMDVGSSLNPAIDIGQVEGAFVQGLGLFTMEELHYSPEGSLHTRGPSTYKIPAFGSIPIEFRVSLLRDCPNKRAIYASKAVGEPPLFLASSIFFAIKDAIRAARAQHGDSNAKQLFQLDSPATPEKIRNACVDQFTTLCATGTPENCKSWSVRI

As for `CC(C)COc1ccc(-c2nc3cccc(O)c3s2)cc1C#N` [Example 12, 2-(3-Cyano-4-isobutyloxyphenyl)-7-hydroxy 1,3-benzothiazole], 0.161 µM corresponded to half-maximal inhibition in assay [1] (IC50).

For the molecule `CC(C)COc1ccc(-c2nc3c(N)ncnc3o2)cc1[N+](=O)[O-]` [Example 1-B, 6-amino-8-(4-isobutoxy-3-nitrophenyl)oxazolo[4,5-d]pyrimidine], at xanthine oxidase, the “Inhibition ratio (plasma uric acid value vs vehicle control group)” value (from here on “Inhibition ratio”) worked out at 60.7%. Besides, the IC50 – broadly, the concentration that gives 50% inhibition – in assay [1] is 0.0448 µM.

`CC(C)COc1ccc(-c2nc3ccncc3[nH]2)cc1[N+](=O)[O-]` [Example 9, 2-(4-Isobutoxy-3-nitrophenyl)-3H-imidazo[4,5-c]pyridine] registered an IC50 in assay [1] of 0.0584 µM.

For `CC(C)COc1ccc(-c2nc3c(C(=O)O)cccc3[nH]2)cc1C#N` [Example 11, 2-(3-Cyano-4-isobutyloxyphenyl)benzimidazole-7-carboxylic acid], the “Inhibition ratio” value on xanthine oxidase is reported as 51.4%. The IC50 in assay [1] stood at 0.0223 µM.

With `CC(C)COc1ccc(-c2nc3ncnc(O)c3[nH]2)cc1[N+](=O)[O-]` [Example 2, 8-(4-Isobutoxy-3-nitrophenyl)-6-hydroxypurine], the IC50 in assay [1] is 0.0111 µM.

With `CC(C)COc1ccc(-c2nc3ncnc(N)c3[nH]2)cc1[N+](=O)[O-]` [Example 6, 6-Amino-8-(4-isobutoxy-3-nitrophenyl)purine], the “Inhibition ratio” value on xanthine oxidase is 63.8%. The same molecule showed an IC50 in assay [1] of 0.0759 µM.

As for `CC(C)COc1ccc(-c2nc3cccc(C(=O)O)c3o2)cc1[N+](=O)[O-]` [Example 8, 2-(4-Isobutoxy-3-nitrophenyl)benzoxazole-7carboxylic acid], the “Inhibition ratio” value at xanthine oxidase worked out at 56.8%. The same molecule displayed an IC50 in assay [1] of 0.0186 µM.

`CC(C)COc1ccc(-c2nc3c(O)cccc3[nH]2)cc1[N+](=O)[O-]` [Example 7, 4-Hydroxy-2-(4-isobutoxy-3-nitrophenyl)-1H-benzimidazole] gave an IC50 in assay [1] of 0.102 µM.

Take `CC(C)COc1ccc(-c2nc3cccc(C(=O)O)c3s2)cc1C#N` [Example 10, 2-(3-Cyano-4-isobutyloxyphenyl)-1,3-benzothiazole-7-carboxylic acid]: the “Inhibition ratio” value at xanthine oxidase came out at 56.1%. In assay [1], this molecule showed an IC50 of 0.05 µM.

In turn, `CC(C)COc1ccc(-c2nc3ncnc(Cl)c3[nH]2)cc1[N+](=O)[O-]` [Example 1-A, 8-(4-Isobutoxy-3-nitrophenyl)-6-chloropurine] came in with an IC50 in assay [1] of 0.0632 µM.
